# Measurements reported in ChEMBL document CHEMBL1149750, “Drimane Sesquiterpene Lactones from Peniophora polygonia” (J Nat Prod, 1992).
# Activity calls are given as the source filed them. The calls are words filed in the database; no cut-off is given here.
# Tested on: Phellinus tremulae
# Experiment: Antifungal activity against Phellinus tremulae
# Format: functional, organism-based
smiles,measurement,value
CC1(C)CCC[C@]2(C)[C@H]3COC(=O)[C@@]3(O)CC[C@@H]12,Activity,Active
